The text below walks through data of patent US20240058453A1 (priority 2022, published 2024).

For the assay, the system named is bacteria. It counts as cell-based.

As to `NC[C@H]1O[C@H](O[C@H]2[C@H](O)[C@@H](O[C@H]3O[C@H](CO)[C@@H](O)[C@H](N)[C@H]3O)[C@H](N)C[C@@H]2N)[C@H](N)C[C@@H]1O` [tobramycin], the bacteria killing activity entry was “comparable activity”.
